Test results as given in publication PMC12632266, “A dual L-glucose/L-galactose catabolic pathway in Luteolibacter species strain LG18” (Journal of Bacteriology, 2025).
One block for each compound: values may come before it.

Tests used:
His6-LguD (L-GnDH) = test system: T1, His6-LguD (L-GnDH); assay: NAD+ reduction at […] nm; type: biochemical, Luteolibacter sp. LG18; details: 10 mM Tris-HCl pH 7.5, 25°C
T1 construct: full-length ORF, N-terminal His6 (pET28a), E. coli BL21 Star (DE3); native N-terminus MKTLVLREPG

His6-LguA (L-GDH) = biological target: T2, His6-LguA (L-GDH) (Luteolibacter sp. LG18, UniProt Z9K5S2U0J3); assay: NADP+ reduction at […] nm; type: biochemical; details: 10 mM Tris-HCl pH 7.5, 25°C
T2 construct: full-length ORF, N-terminal His6 (pET28a), E. coli BL21 Star (DE3); native N-terminus METRKLGNTGLDVSV
T2 sequence (Z9K5S2U0J3 21-349): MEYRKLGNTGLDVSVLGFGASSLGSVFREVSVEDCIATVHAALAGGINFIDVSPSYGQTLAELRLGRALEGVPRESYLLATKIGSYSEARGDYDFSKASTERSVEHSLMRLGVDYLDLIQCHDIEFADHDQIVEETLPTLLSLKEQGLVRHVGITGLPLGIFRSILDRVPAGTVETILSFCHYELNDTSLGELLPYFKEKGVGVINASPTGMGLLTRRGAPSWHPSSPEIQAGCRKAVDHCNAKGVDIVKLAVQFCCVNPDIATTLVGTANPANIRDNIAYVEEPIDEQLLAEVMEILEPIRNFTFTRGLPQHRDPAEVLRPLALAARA

His6-LguH = test system: T3, His6-LguH; assay: coupled LguE/GAPDH, NADH formation at […] nm; type: biochemical, Luteolibacter sp. LG18; details: 1 mM MgCl2, 100 mM potassium phosphate pH 7.0, 25°C
T3 construct: full-length ORF, N-terminal His6 (pET28a), E. coli BL21 Star (DE3)

His6-LguE = test system: T4, His6-LguE; assay: coupled LDH, NADH oxidation (pyruvate production); type: biochemical, Luteolibacter sp. LG18; details: 100 mM potassium phosphate pH 7.0, 25°C
T4 construct: full-length ORF, N-terminal His6 (pET28a), E. coli BL21 Star (DE3)
Text: coupled LDH, NADH oxidation (pyruvate production) on His6-LguE

Km (His6-LguD (L-GnDH); 1 mM NAD+): 4300 ± 340 µM
Structure (SMILES): O=C(O)[C@@H](O)[C@H](O)[C@@H](O)[C@@H](O)CO [L-gluconate]

Km (His6-LguA (L-GDH); 100 mM L-glucose): 79.3 µM
Structure (SMILES): NC(=O)c1ccc[n+]([C@@H]2O[C@H](COP(=O)(O)OP(=O)(O)OC[C@H]3O[C@@H](n4cnc5c(N)ncnc54)[C@H](OP(=O)(O)O)[C@@H]3O)[C@@H](O)[C@H]2O)c1 [NADP^+]

Km (His6-LguA (L-GDH); 1 mM NADP+): 7700 ± 490 µM
Structure (SMILES): OC[C@@H]1OC(O)[C@@H](O)[C@H](O)[C@H]1O (stereo partly drawn) [L-glucose]

Km (His6-LguH; 5 mM KDG, phosphate donor): 306 ± 63 µM
Structure (SMILES): O=P(O)(O)OP(=O)(O)O [PPi]

Km (His6-LguD (L-GnDH); 20 mM L-gluconate): 450 ± 30 µM
Structure (SMILES): NC(=O)c1ccc[n+]([C@@H]2O[C@H](COP(=O)(O)OP(=O)(O)OC[C@H]3O[C@@H](n4cnc5c(N)ncnc54)[C@H](O)[C@@H]3O)[C@@H](O)[C@H]2O)c1 [NAD^+]

The remaining lines, values behind:

Structure (SMILES): O=C(O)[C@@H](O)[C@H](O)[C@H](O)[C@@H](O)CO [L-galactonate]
Km (His6-LguD (L-GnDH); 1 mM NAD+): 2960 ± 230 µM

Structure (SMILES): OC[C@@H]1OC(O)[C@@H](O)[C@H](O)[C@@H]1O (stereo partly drawn) [L-galactose]
Km (His6-LguA (L-GDH); 1 mM NADP+): 91.7 µM

Structure (SMILES): Nc1ncnc2c1ncn2[C@@H]1O[C@H](COP(=O)(O)OP(=O)(O)OP(=O)(O)O)[C@@H](O)[C@H]1O [ATP]
Km (His6-LguH; 5 mM KDG, phosphate donor): 55 ± 47 µM

Structure (SMILES): O=C(O)C(=O)C[C@H](O)[C@H](O)COP(=O)(O)O [KDPG]
Km (His6-LguE): 137 ± 10 µM

Structure (SMILES): O=C(O)C(=O)C[C@H](O)[C@H](O)CO [KDG]
Km (His6-LguH; 10 mM PPi): 198 ± 12 µM
